Laboratory results: patent US8535901B2, “Peptidase substrates” (bioMérieux, S.A., priority 2009, dated 2013)

Columns and labels:
Type in all cases: cell-based
[1] = test system: Citrobacter freundii NCTC 9750; assay: Colony color on lactose/sucrose agar medium with pH indicator; settings: indicator 0.05 g/l with lactose, sucrose and 5-bromo-4-chloro-3-indoxyl-β-D-glucopyranoside 0.05 g/l, 24 hours at 37° C., visual
Description: (§1) Seven strains of microorganisms originating from the NCTC collection and belonging to various species of bacteria are inoculated onto these media by quadrant streaking of 10 μl of a suspension at 0.5 McFarland diluted to a 1/20.

[2] = test system: Enterobacter aerogenes NCTC 10 102; assay: as above; settings: indicator 0.05 g/l with lactose, sucrose and 5-bromo-4-chloro-3-indoxyl-β-D-glucopyranoside 0.05 g/l, 24 hours at 37° C., visual
Description: as §1

[3] = test system: Enterobacter cloacae NCTC 11 936; assay: as above; settings: indicator 0.05 g/l with lactose, sucrose and 5-bromo-4-chloro-3-indoxyl-β-D-glucopyranoside 0.05 g/l, 24 hours at 37° C., visual
Description: as §1

[4] = test system: Escherichia coli NCTC 12 076; assay: as above; settings: indicator 0.05 g/l with lactose, sucrose and 5-bromo-4-chloro-3-indoxyl-β-D-glucopyranoside 0.05 g/l, 24 hours at 37° C., visual
Description: as §1

[5] = test system: Klebsiella pneumoniae NCTC 10 896; assay: as above; settings: indicator 0.05 g/l with lactose, sucrose and 5-bromo-4-chloro-3-indoxyl-β-D-glucopyranoside 0.05 g/l, 24 hours at 37° C., visual
Description: as §1

[6] = test system: Morganella morganii NCTC 235; assay: as above; settings: indicator 0.05 g/l with lactose, sucrose and 5-bromo-4-chloro-3-indoxyl-β-D-glucopyranoside 0.05 g/l, 24 hours at 37° C., visual
Description: as §1

[7] = test system: Shigella boydii NCTC 9327; assay: as above; settings: indicator 0.05 g/l with lactose, sucrose and 5-bromo-4-chloro-3-indoxyl-β-D-glucopyranoside 0.05 g/l, 24 hours at 37° C., visual
Description: as §1

[8] = test system: Escherichia coli NCTC 10 418; assay: Peptidase detection on Columbia medium with substrate; set-up: key to Grow. (growth): NG: No growth; 0.5: weak growth; 1: moderate growth; 2: good growth; settings: 40 mg substrate in 400 ml Columbia medium, 24 hours at 37° C.
Description: (§2) The 6 media were distributed into Petri dishes 90 mm in diameter, in a proportion of 20 ml per dish.
(§3) Seventeen strains of microorganisms stemming from collections and belonging to various species of bacteria and yeasts are inoculated in spots of approximately 10 000 colony-forming units.
(§4) The media are incubated for 24 hours at 37° C., and then the colonies formed are examined visually, with or without the addition of acid and under a UV lamp at 365 nm.

[9] = test system: Serratia marcescens NCTC 10 211; assay: as above; set-up: key to Grow. (growth): NG: No growth; 0.5: weak growth; 1: moderate growth; 2: good growth; settings: 40 mg substrate in 400 ml Columbia medium, 24 hours at 37° C.
Description: as §2, §3, §4

[10] = test system: Pseudomonas aeruginosa NCTC 10 662; assay: as above; set-up: key to Grow. (growth): NG: No growth; 0.5: weak growth; 1: moderate growth; 2: good growth; settings: 40 mg substrate in 400 ml Columbia medium, 24 hours at 37° C.
Description: as §2, §3, §4

[11] = test system: Yersinia enterocolitica NCTC 11 176; assay: as above; set-up: key to Grow. (growth): NG: No growth; 0.5: weak growth; 1: moderate growth; 2: good growth; settings: 40 mg substrate in 400 ml Columbia medium, 24 hours at 37° C.
Description: as §2, §3, §4

[12] = test system: Salmonella typhimurium NCTC 74; assay: as above; set-up: key to Grow. (growth): NG: No growth; 0.5: weak growth; 1: moderate growth; 2: good growth; settings: 40 mg substrate in 400 ml Columbia medium, 24 hours at 37° C.
Description: as §2, §3, §4

[13] = test system: Enterobacter cloacae NCTC 11 936; assay: as above; set-up: key to Grow. (growth): NG: No growth; 0.5: weak growth; 1: moderate growth; 2: good growth; settings: 40 mg substrate in 400 ml Columbia medium, 24 hours at 37° C.
Description: as §2, §3, §4

[14] = test system: Providencia rettgeri NCTC 7 475; assay: as above; set-up: key to Grow. (growth): NG: No growth; 0.5: weak growth; 1: moderate growth; 2: good growth; settings: 40 mg substrate in 400 ml Columbia medium, 24 hours at 37° C.
Description: as §2, §3, §4

[15] = test system: Bacillus subtilis NCTC 9 372; assay: as above; set-up: key to Grow. (growth): NG: No growth; 0.5: weak growth; 1: moderate growth; 2: good growth; settings: 40 mg substrate in 400 ml Columbia medium, 24 hours at 37° C.
Description: as §2, §3, §4

[16] = test system: Enterococcus faecalis NCTC 775; assay: as above; set-up: key to Grow. (growth): NG: No growth; 0.5: weak growth; 1: moderate growth; 2: good growth; settings: 40 mg substrate in 400 ml Columbia medium, 24 hours at 37° C.
Description: as §2, §3, §4

[17] = test system: Enterococcus faecium NCTC 7 171; assay: as above; set-up: key to Grow. (growth): NG: No growth; 0.5: weak growth; 1: moderate growth; 2: good growth; settings: 40 mg substrate in 400 ml Columbia medium, 24 hours at 37° C.
Description: as §2, §3, §4

[18] = test system: Staphylococcus epidermidis NCTC 11 047; assay: as above; set-up: key to Grow. (growth): NG: No growth; 0.5: weak growth; 1: moderate growth; 2: good growth; settings: 40 mg substrate in 400 ml Columbia medium, 24 hours at 37° C.
Description: as §2, §3, §4

[19] = test system: Staphylococcus aureus NCTC 6 571; assay: as above; set-up: key to Grow. (growth): NG: No growth; 0.5: weak growth; 1: moderate growth; 2: good growth; settings: 40 mg substrate in 400 ml Columbia medium, 24 hours at 37° C.
Description: as §2, §3, §4

[20] = test system: Staphylococcus aureus NCTC 11 939; assay: as above; set-up: key to Grow. (growth): NG: No growth; 0.5: weak growth; 1: moderate growth; 2: good growth; settings: 40 mg substrate in 400 ml Columbia medium, 24 hours at 37° C.
Description: as §2, §3, §4

[21] = test system: Streptococcus pyogenes NCTC 8 306; assay: as above; set-up: key to Grow. (growth): NG: No growth; 0.5: weak growth; 1: moderate growth; 2: good growth; settings: 40 mg substrate in 400 ml Columbia medium, 24 hours at 37° C.
Description: as §2, §3, §4

[22] = test system: Listeria monocytogenes NCTC 11 994; assay: as above; set-up: key to Grow. (growth): NG: No growth; 0.5: weak growth; 1: moderate growth; 2: good growth; settings: 40 mg substrate in 400 ml Columbia medium, 24 hours at 37° C.
Description: as §2, §3, §4

[23] = test system: Candida albicans ATCC 90 028; assay: as above; set-up: key to Grow. (growth): NG: No growth; 0.5: weak growth; 1: moderate growth; 2: good growth; settings: 40 mg substrate in 400 ml Columbia medium, 24 hours at 37° C.
Description: as §2, §3, §4

[24] = test system: Candida glabrata NCPF 3 943; assay: as above; set-up: key to Grow. (growth): NG: No growth; 0.5: weak growth; 1: moderate growth; 2: good growth; settings: 40 mg substrate in 400 ml Columbia medium, 24 hours at 37° C.
Description: as §2, §3, §4

## Nc1ccc(C=Cc2ccncc2)cc1 [4-4′-Aminostyrylpyridine, 4-(4′-Aminostyryl)pyridine]
[1]
  Colony color: Yellow
[2]
  Colony color: Green
[3]
  Colony color: Green
[4]
  Colony color: Yellow
[5]
  Colony color: Green
[6]
  Colony color: Colorless
[7]
  Colony color: Colorless

## C[n+]1ccc(C=Cc2ccc(NC(=O)CCN)cc2)cc1.[Cl-] [β-Ala-ASPM^+, β-Alanyl-4-(4′-amidostyryl)-N-methyl-pyridinium chloride]
[8]
  Grow. (growth): 2
[8]; visual
  Col. (colour of the colonies): Green
[9]
  Grow. (growth): 2
[9]; visual
  Col. (colour of the colonies): Orange
[10]
  Grow. (growth): 2
[10]; visual
  Col. (colour of the colonies): Orange
[11]
  Grow. (growth): 2
[11]; visual
  Col. (colour of the colonies): Pale green
[12]
  Grow. (growth): 1
[12]; visual
  Col. (colour of the colonies): Pale green
[13]
  Grow. (growth): 2
[13]; visual
  Col. (colour of the colonies): Green
[14]
  Grow. (growth): 2
[14]; visual
  Col. (colour of the colonies): Green
[15]
  Grow. (growth): 2
[15]; visual
  Col. (colour of the colonies): Pale green
[16]
  Grow. (growth): 2
[16]; visual
  Col. (colour of the colonies): Pale green
[17]
  Grow. (growth): 2
[17]; visual
  Col. (colour of the colonies): Pale green
[18]
  Grow. (growth): 2
[18]; visual
  Col. (colour of the colonies): Green
[19]
  Grow. (growth): 2
[19]; visual
  Col. (colour of the colonies): Green
[20]
  Grow. (growth): 2
[20]; visual
  Col. (colour of the colonies): Green
[21]
  Grow. (growth): 1
[21]; visual
  Col. (colour of the colonies): Pale green
[22]
  Grow. (growth): 2
[22]; visual
  Col. (colour of the colonies): Pale green
[23]
  Grow. (growth): 2
[23]; visual
  Col. (colour of the colonies): Pale green
[24]
  Grow. (growth): 1
[24]; visual
  Col. (colour of the colonies): Pale green
